The test system of data set [1] is MDA-MB-231 (subclone 2LMP) breast cancer cell line. The data set is described as follows: Cell growth inhibition, MDA-MB-231 (subclone 2LMP). It is filed as cell-based, human. As to the method: (§1) A direct comparison of (−)-gossypol, apogossypol and apogossypolone for their activity in inhibition of cell growth in PC-3 and LnCap prostate cancer cell lines was carried out.
(§2) Additional cell growth inhibition studies were performed using the MDA-MB-231 (subclone 2LMP), T47D, and MDA-MB-435 breast cancer cell lines. Racemic gossypol, apogossypol, apogossypolone, (+)-apogossypol, (−)-apogossypol, and tetra-acetyl apogossypolone (Formula VIII) were tested as described above.

The subject of data set [2] is MDA-MB-435 breast cancer cell line. The data set is described as follows: Cell growth inhibition, MDA-MB-435. The format is cell-based, human. As to the method:
as §1, §2

In data set [3] the test system is T47D breast cancer cell line. The data set is described as follows: Cell growth inhibition, T47D. The format is cell-based, human. As to the method:
as §1, §2

Data set [4] deals with PC-3 prostate cancer cell line. Nature of the data set: Inhibition of cell growth, MTT assay, PC-3. The format is cell-based, human. The conditions noted are these: for IC50: PC-3 cells, 4-6 day MTT assay, read-out: IC50, inhibition of cell growth. As to the method: as §1
The test system of data set [5] is LnCap prostate cancer cell line. Nature of the data set: Inhibition of cell growth, MTT assay, LnCap. The format is cell-based. The conditions noted are these: LnCap cell line; read-out: IC50, inhibition of cell growth. On the procedure: as §1
For orientation: Formazan colour is commonly taken as a measure of viable cells.

Data set [6] is described as follows: Maximal tolerated dose (MTD) in mice. The format is in vivo. As to the method: To confirm this prediction, the maximal tolerated dose (MTD) of apogossypolone and (−)-gossypol was evaluated in mice using two different routes of administrations (oral and intravenous). For oral administration (oral gavage 5 days/week), the MTD of apogossypolone was above 240 mg/kg while the MTD for (−)-gossypol was about 50 mg/kg. For intravenous administration (every other day and 3 days/week), the MTD of apogossypolone was about 80 mg/kg while the MTD for (−)-gossypol was about 10 mg/kg. In both routes of administration, the MTD of apogossypolone was 8-times better than (−)-gossypol.

For data set [7], the target named is T1, human Mcl-1 protein (amino acids 171-327) (Homo sapiens, UniProt Q07820).
T1 construct: The fragment encoding amino acids 171-327 was cloned into the pHis-TEV vector; 8xHis (N); made in house; host or cells: E. coli BL21(DE3)
T1 sequence (Q07820 171-327): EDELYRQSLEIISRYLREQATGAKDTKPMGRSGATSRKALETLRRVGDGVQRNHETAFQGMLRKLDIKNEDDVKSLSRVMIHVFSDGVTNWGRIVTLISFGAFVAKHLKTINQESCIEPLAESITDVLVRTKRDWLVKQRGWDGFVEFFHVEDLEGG
The data set is described as follows: Fluorescence polarization binding assay for the Mcl-1 protein (Flu-Bid-21 probe).

A further data set addresses recombinant human Bcl-2 (Homo sapiens, UniProt P10415). The data set is described as follows: Fluorescence polarization binding assay for Bcl-2 (Bid-FAM peptide displacement).
A short description of data set [8]: Storage stability of the sample. It is filed as physicochemical. The conditions noted are these: stored at −20° C. and under nitrogen.
[9] abbreviates: Homo sapiens, MDA-MB-231, read-out: IC50 (μM) MDA-MB-231.
The mark [10] stands for this setting: Homo sapiens, MDA-MB-435, read-out: IC50 (μM) MDA-MB-435.
[11] abbreviates: Homo sapiens, T47D, read-out: IC50 (μM) T47D.
Setting [12] is: MDA-MB-231 (subclone 2LMP), read-out: IC50 (μM) MDA-MB-231.
[13] abbreviates: MDA-MB-435; read-out: IC50 (μM) MDA-MB-435.
Setting [14] is: FP-based binding assay, Ki calculated from IC50 with modified Cheng-Prusoff equation, read-out: Ki.

Structures are written as SMILES. Read-outs that look alike come from different tables or passages of the source. Bounds are passed on as bounds.

Chain of recombinant human Bcl-2 (P10415 92-205 limits assumed): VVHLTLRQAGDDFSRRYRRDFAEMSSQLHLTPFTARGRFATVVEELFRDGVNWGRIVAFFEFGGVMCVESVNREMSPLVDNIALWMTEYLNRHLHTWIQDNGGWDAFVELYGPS

In the case of `Cc1cc2c(C(C)C)c(O)c(O)c(C=O)c2c(O)c1-c1c(C)cc2c(C(C)C)c(O)c(O)c(C=O)c2c1O` (racemic) [(±)-Gossypol, gossypol], the IC50 in data set [1] (setting [9]) turned out to be 11.1 µM; in [2] (setting [10]) it was 11.4 µM; in data set [3] (setting [11]), 16.3 µM.
Consider `Cc1cc2c(C(C)C)c(O)c(O)cc2c(O)c1-c1c(C)cc2c(C(C)C)c(O)c(O)cc2c1O` [(+)-Apogossypol, (+)-apogossypol], for which the IC50 was 8.81 µM in [1] (setting [12]), 7.28 µM in data set [2] (setting [13]) and 14 µM in data set [3] (T47D; read-out: IC50 (μM) T47D).
`Cc1cc2c(C(C)C)c(O)c(O)cc2c(O)c1-c1c(C)cc2c(C(C)C)c(O)c(O)cc2c1O` [(−)-Apogossypol, (−)-apogossypol]: the 50% inhibitory concentration (IC50) in data set [1] (setting [12]) amounted to 2.31 µM; in data set [2] (setting [13]) it was 3.13 µM; in data set [3] (T47D; read-out: IC50 (μM) T47D), 4.26 µM.
`Cc1cc2c(C(C)C)c(O)c(O)c(C=O)c2c(O)c1-c1c(C)cc2c(C(C)C)c(O)c(O)c(C=O)c2c1O` [(−)-gossypol, reference compound]: the IC50 in data set [4] turned out to be 6.5 µM; in [5], 4.7 µM. Besides, the “maximal tolerated dose (MTD)” value in [6] (intravenous, every other day and 3 days/week) is recorded as “about 10 mg/kg”; in data set [6] (oral gavage 5 days/week) it was “about 50 mg/kg”. Besides, the inhibitory constant (Ki) in data set [7] (FP competitive binding, unit inferred, read-out: Ki to Mcl-1) is 0.18 ± 0.01 µM.
Consider `CC[C@H](C)[C@H](NC(=O)[C@H](CC(N)=O)NC(=O)[C@H](CCCNC(=N)N)NC(=O)[C@@H](NC(=O)[C@@H](NC(=O)[C@H](CC(=O)O)NC(=O)[C@H](CCC(=O)O)NC(=O)[C@H](CCC(N)=O)NC(=O)c1ccc2c(c1)C1(OC2=O)c2ccc(O)cc2Oc2cc(O)ccc21)[C@@H](C)CC)[C@@H](C)CC)C(=O)N[C@@H](C)C(=O)N[C@@H](CCCNC(=N)N)C(=O)N[C@@H](Cc1c[nH]cn1)C(=O)N[C@@H](CC(C)C)C(=O)N[C@@H](C)C(=O)N[C@@H](CCC(N)=O)C(=O)N[C@H](C(=O)NCC(=O)N[C@@H](CC(=O)O)C(=O)N[C@@H](CO)C(=O)N[C@@H](CCSC)C(=O)N[C@@H](CC(=O)O)C(=O)N[C@@H](CCCNC(=N)N)C(=O)O)C(C)C` [Flu-Bid-21], for which the Kd is 0.0007 µM in data set [7] (probe concentration 0.5 nM, read-out: apparent Kd for Mcl-1); 0.00083 µM in [7] (probe concentration 1 nM, saturation experiment, read-out: Kd for Mcl-1); 0.00105 µM in data set [7] (probe concentration 2.5 nM, read-out: apparent Kd for Mcl-1); 0.00132 µM in data set [7] (probe concentration 5 nM, read-out: apparent Kd for Mcl-1).
Regarding `CC(=O)Oc1cc2c(c(C(C)C)c1OC(C)=O)C(=O)C(C)=C(C1=C(C)C(=O)c3c(cc(OC(C)=O)c(OC(C)=O)c3C(C)C)C1=O)C2=O` [Tetra acetyl apogossypolone, tetra-acetyl apogossypolone], the IC50 in data set [1] (Homo sapiens, MDA-MB-231 (subclone 2LMP), read-out: IC50 (μM) MDA-MB-231) stood at 1.32 µM; in [2] (Homo sapiens, MDA-MB-435; read-out: IC50 (μM) MDA-MB-435), 6.29 µM; in [3] (Homo sapiens, T47D; read-out: IC50 (μM) T47D) it was 6.33 µM.
For `Cc1cc2c(C(C)C)c(O)c(O)cc2c(O)c1-c1c(C)cc2c(C(C)C)c(O)c(O)cc2c1O` [apogossypol], the Ki at recombinant human Bcl-2 was 0.2 µM. Further, in data set [4] (PC-3 cell line, 3-5 independent experiments), the “potency relative to (−)-gossypol in inhibition of cell growth” value is “as potent as (−)-gossypol”. Further, the half-maximal inhibitory concentration (IC50) in data set [1] (setting [9]) stood at 2.37 µM; in data set [2] (setting [10]), 3.39 µM; in data set [3] (setting [11]), 6.51 µM. The figures for the “fold more potent than gossypol” value in data set [1] (MDA-MB-231 cell line), in [2] (MDA-MB-435 cell line) and in [3] (T47D cell line) were “about 5 fold”, “about 3 fold” and “about 2.5 fold”, respectively. Besides, the “time in which the sample decomposed” value in [8] is listed as at most 1 week.
Turning to `Cc1cc2c(C(C)C)c(O)c(O)c(C(=O)O)c2c(O)c1-c1c(C)cc2c(C(C)C)c(O)c(O)c(C(=O)O)c2c1O` [gossypolic acid], on recombinant human Bcl-2 (setting [14]), the Ki is 0.12 µM. Besides, the IC50 in data set [4] (Homo sapiens) was over 10 µM.
As for `CC1=C(C2=C(C)C(=O)c3c(c(C(=O)O)c(O)c(O)c3C(C)C)C2=O)C(=O)c2c(C(=O)O)c(O)c(O)c(C(C)C)c2C1=O` [gossypolonic acid], the Ki on recombinant human Bcl-2 (setting [14]) is 0.28 µM. Further, in [4] (Homo sapiens), the IC50 is over 10 µM.
For the molecule `CC[C@H](C)[C@H](NC(=O)[C@H](CC(N)=O)NC(=O)[C@H](CCCN=C(N)N)NC(=O)[C@@H](NC(=O)[C@@H](NC(=O)[C@H](CC(=O)O)NC(=O)[C@H](CCC(=O)O)NC(=O)[C@@H](N)CCC(N)=O)[C@@H](C)CC)[C@@H](C)CC)C(=O)N[C@@H](C)C(=O)N[C@@H](CCCN=C(N)N)C(=O)N[C@@H](Cc1c[nH]cn1)C(=O)N[C@@H](CC(C)C)C(=O)N[C@@H](C)C(=O)N[C@@H](CCC(N)=O)C(=O)N[C@H](C(=O)NCC(=O)N[C@@H](CC(=O)O)C(=O)N[C@@H](CO)C(=O)N[C@@H](CCSC)C(=O)N[C@@H](CC(=O)O)C(=O)N[C@@H](CCCN=C(N)N)C(=O)O)C(C)C` [unlabeled Bid 21mer peptide], the Ki in [7] was determined as 0.0057 ± 0.0011 µM.

One may read the IC50 as the concentration that inhibits the measured activity by half. For orientation: Ki means a measure of affinity in units of concentration, obtained from inhibition or displacement.

The values are drawn from patent publication US20060178435A1, “Apogossypolone and the uses thereof” (The Regents of the University of Michigan, priority 2004, published 2006).
